Results published in patent publication EP4509511A1, “SUBSTITUTED SPIRO-ISOXAZOLINYL LACTAMS, SALTS THEREOF AND THEIR USE AS HERBICIDALLY ACTIVE SUBSTANCES” (Bayer Aktiengesellschaft, priority 2023, dated 2025).

Columns and labels:
POAAN = assay: Herbicidal post-emergence action - Part I; type: in vivo, Poa annua; conditions: 1280 g/ha, one-leaf stage, rated visually after about 3 weeks vs untreated controls
In short: (§1)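 Greenhouse weeds grown in sandy loam were sprayed post-emergence at the one-leaf stage, 2-3 weeks after sowing. Compounds were applied as WP or EC in water with 0.5% additive at 600 L/ha, at 1280 g/ha or below. Visual damage was rated after about 3 weeks versus untreated plants (0-100%).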

SETVI [1] = assay: Herbicidal pre-emergence action - Part I; type: in vivo, Setaria viridis; conditions: visual grading after ca. 3 weeks vs untreated controls
In short: (§2)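 Weed seeds sown in sandy loam pots (one mono- and one dicot species per pot) and covered with soil; compounds as WP or EC applied to covering soil surface as aqueous suspension/emulsion with 0.5% additive at 600 l water/ha, rates 1280 g/ha or below. Greenhouse; visual damage rated after ca. 3 weeks vs untreated (0–100%).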

ALOMY = assay: Herbicidal pre-emergence action - Part I; type: in vivo, Alopecurus myosuroides; conditions: visual grading after ca. 3 weeks vs untreated controls
Description: (§3) Seeds of mono- and dicotyledonous weed plants were sown in plastic pots (double sowings with one species of mono- and one species of dicotyledonous weed plants per pot), in sandy loam, and covered with soil. The compounds according to the invention, formulated in the form of wettable powders (WP) or as emulsifiable concentrates (EC), were applied to the surface of the covering soil as aqueous suspension or emulsion, with the addition of 0.5% of an additive, at an application rate of 600 1 of water per hectare (converted). Following treatment, the pots were placed in a greenhouse and kept under optimum growth conditions for the test plants. The visual grading of the damage to the test plants was carried out after ca. 3 weeks in comparison to untreated controls (herbicidaleffectinpercent(%):100%effect=plantshavediedoff,0%effect=ascontrolplants). [formula]
(§4) Tables A1 to A12, below, show the effects of selected compounds of the general formula (I) according to table 1 on various harmful plants and an application rate corresponding to 1280 g/ha or below obtained by the experimental procedure mentioned above. Table A1: pre-emergence activity at 1280g/ha against ABUTH in %

DIGSA [2] = assay: Herbicidal pre-emergence action - Part II; type: in vivo, Digitaria sanguinalis
Description: Seeds of mono- and dicotyledonous weed plants and crop plants were sown, in plastic or organic planting pots, in sandy loam and covered with soil. The compounds according to the invention, formulated in the form of wettable powders (WP) or as emulsifiable concentrates (EC), were applied to the surface of the covering soil as aqueous suspension or emulsion, with the addition of 0.5% of an additive, at an application rate of 600 1 of water/ha (converted). Following treatment, the pots were placed in a greenhouse and kept under optimum growth conditions for the test plants. The visual grading of the damage to the test plants was carried out after ca. 3 weeks in comparison to untreated controls (herbicidal effect in percent (%): 100% effect = plants have died off, 0% effect = as control plants). Tables C1 to C12 below show the effects of selected compounds of the general formula (I) according to table 1 on various harmful plants and an application rate corresponding to 320 g/ha or below obtained by the experimental procedure mentioned above. Table C1: pre-emergence activity at 320g/ha against ABUTH in %

ECHCG = assay: Herbicidal pre-emergence action - Part I; type: in vivo, Echinochloa crus-galli; conditions: visual grading after ca. 3 weeks vs untreated controls
In short: as §2

STEME = assay: Herbicidal pre-emergence action - Part I; type: in vivo, Stellaria media; conditions: visual grading after ca. 3 weeks vs untreated controls
In short: as §2

BRSNW = assay: Pre-emergence effects on crop plants; type: in vivo, Brassica napus; conditions: 80 g/ha; Table D5; crop plant
Description: Seeds of mono- and dicotyledonous weed plants and crop plants were sown, in plastic or organic planting pots, in sandy loam and covered with soil. The compounds according to the invention, formulated in the form of wettable powders (WP) or as emulsifiable concentrates (EC), were applied to the surface of the covering soil as aqueous suspension or emulsion, with the addition of 0.5% of an additive, at an application rate of 600 1 of water/ha (converted). Following treatment, the pots were placed in a greenhouse and kept under optimum growth conditions for the test plants. The visual grading of the damage to the test plants was carried out after ca. 3 weeks in comparison to untreated controls (herbicidal effect in percent (%): 100% effect = plants have died off, 0% effect = as control plants). Tables D1 to D5 below show the effects of various compounds of the general formula (I) according to Table 1 on various crop plants and an application rate corresponding to 320 g/ha or below obtained by the experimental procedure mentioned above in Biological Examples, Section C. Table […]: pre-emergence activity at 320g/ha against ZEAMX in %

VERPE = assay: Herbicidal pre-emergence action - Part I; type: in vivo, Veronica persica; conditions: visual grading after ca. 3 weeks vs untreated controls
Description: as §3, §4

AMARE = assay: Herbicidal post-emergence action - Part I; type: in vivo, Amaranthus retroflexus; conditions: one-leaf stage, rated visually after about 3 weeks vs untreated controls
In short: as §1

SETVI [3] = assay: Herbicidal post-emergence action - Part I; type: in vivo, Setaria viridis; conditions: one-leaf stage, rated visually after about 3 weeks vs untreated controls
Experimental: Seeds of mono- and dicotyledonous weed plants were placed in plastic pots in sandy loam soil (doubly sown with in each case one species of mono- or dicotyledonous weed plants per pot), covered with soil and cultivated in a greenhouse under controlled growth conditions. 2 to 3 weeks after sowing, the test plants were treated at the one-leaf stage. The compounds of the invention, formulated in the form of wettable powders (WP) or as emulsion concentrates (EC), were applied onto the green parts of the plants as aqueous suspension or emulsion with addition of 0.5% additive at a water application rate of 600 liters per hectare (converted). After the test plants had been kept in the greenhouse under optimum growth conditions for about 3 weeks, the activity of the preparations was rated visually in comparison to untreated controls. For example, 100% activity = the plants have died, 0% activity = like control plants. Tables B1 to B12, below, show the effects of selected compounds of the general formula (I) according to table 1 on various harmful plants and an application rate corresponding to 1280 g/ha or below obtained by the experimental procedure mentioned above. Table B1a: post-emergence activity at 1280g/ha against ABUTH in %

DIGSA [4] = assay: Herbicidal pre-emergence action - Part I; type: in vivo, Digitaria sanguinalis; conditions: visual grading after ca. 3 weeks vs untreated controls
In short: as §2

SMILES | post-emergence activity at 1280g/ha against POAAN in % (POAAN) | pre-emergence activity at 320g/ha and against SETVI in % (SETVI [1]) | pre-emergence activity at 1280g/ha and against SETVI in % (SETVI [1]) | pre-emergence activity at 1280g/ha against ALOMY in % (ALOMY) | pre-emergence activity against DIGSA (DIGSA [2]; 320 g/ha, Table C5a) | pre-emergence activity at 320g/ha against ECHCG in % (ECHCG) | pre-emergence activity at 1280g/ha against ECHCG in % (ECHCG) | pre-emergence activity at 1280g/ha against STEME in % (STEME) | pre-emergence activity against BRSNW (BRSNW) | pre-emergence activity at 1280g/ha against VERPE in % (VERPE) | pre-emergence activity at 320g/ha against STEME in % (STEME) | post-emergence activity at 1280g/ha against AMARE in % (AMARE) | further results
Cc1ccsc1C1=NOC2(CCN(Cc3c(F)cccc3F)C2=O)C1 (racemic) [Compound I-16, 7-(2,6-Difluorobenzyl)-3-(3-methyl-2-thienyl)-1-oxa-2,7-diazaspiro[4.4]non-2-en-6-one] | 90% | 100% | 100% | 90% | 80% | 100% | 100% | 90% | 20% | 100% |  |  | 
O=C1N(Cc2ccccc2F)CCC12CC(c1c(F)cccc1F)=NO2 (racemic) [Compound I-10] |  | 90% | 100% |  | 90% |  | 100% | 90% | 20% | 90% | 90% | 90% | post-emergence activity at 80g/ha against AMARE in % (AMARE; 80 g/ha): 90%; post-emergence activity at 320g/ha against AMARE in % (AMARE; 320 g/ha): 90%
Cc1ccsc1C1=NOC2(CCCN(Cc3c(F)cccc3F)C2=O)C1 (racemic) [Compound I-2] | 90% | 100% | 100% | 90% | 100% | 100% | 100% | 90% |  |  | 90% | 90% | post-emergence activity at 80g/ha against SETVI in % (SETVI [3]; 80 g/ha): 90%; post-emergence activity at 320g/ha against SETVI in % (SETVI [3]; 320 g/ha): 90%; post-emergence activity at 1280g/ha against SETVI in % (SETVI [3]; 1280 g/ha): 90%; pre-emergence activity at 80g/ha and against SETVI in % (SETVI [1]; 80 g/ha): 100%; pre-emergence activity at 320g/ha against DIGSA in % (DIGSA [4]; 320 g/ha): 100%; pre-emergence activity at 1280g/ha against DIGSA in % (DIGSA [4]; 1280 g/ha): 100%; pre-emergence activity against DIGSA (DIGSA [2]; 80 g/ha, Table C5b): 90%; pre-emergence activity at 80g/ha against STEME in % (STEME; 80 g/ha): 90%
